Measured values published in US20250368648A1, “MULTI-CYCLIC IRAK AND FLT3 INHIBITING COMPOUNDS AND USES THEREOF” (CHILDREN'S HOSPITAL MEDICAL CENTER, priority 2022, published 2025).

How the values were obtained:
MOLM14 (D835Y) cells = test: Combination drug screening, Cell Titer Glo, MOLM14 (D835Y) cells; details: MOLM14(D835Y) cells; for Excess HSA Score: sum score, listed as compound in combination with Compound 106, 48 hours;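 on all read-outs here: MOLM14 cells with FLT3 ITD plus D835Y, 500 per well in 1536-well plates, 10-point dose ranges, luminescent viability after 48 h, negative Excess HSA indicates synergy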
Experimental: Briefly, 10 nL of the compound shown below was acoustically dispensed into 1536-well white polystyrene tissue culture-treated plates with an Echo 550 acoustic liquid handler (Labcyte). Cells were then added to compound-containing plate at a density of 500-cells/well in 5 μL of medium. A 6-point or 10-point custom concentration range was used for all listed drugs. Plates were incubated for 48 hours at standard incubator conditions covered by a stainless steel gasketed lid to prevent evaporation. 48h post compound addition, 3 μL of Cell Titer Glo (Promega) were added to each well and plates were incubated at room temperature for 15 minutes with the stainless-steel lid in place. Luminescence readings were taken using a Viewlux imager (PerkinElmer) with a 2 second exposure time per plate.
A smaller concentration indicates higher potency to synergize with Venetoclax.
A smaller concentration indicates higher potency to synergize with azacitidine.
(§1) This is a cell line that has the FLT3 ITD mutation but also the FLT3 D835Y kinase domain mutation. […] Excess HSA is a measure of synergy vs. additivity or antagonism, wherein a negative Excess HSA value is indicative of synergy.

THP1 cells = test: Combination drug screening, Cell Titer Glo, THP1 cells; details: THP1 cells; for Excess HSA Score: sum score, 10 × 10 dataset, 48 hours;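 on all read-outs here: luminescence read out in 1536-well plates seeded with 500 THP1 cells per well, each drug spanning a 10-point concentration range in the combination matrix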
Text: A smaller concentration indicates higher potency to synergize with Venetoclax. […] The numbers in each cell represent the % response (left) or the Delta Bliss score (right) at each given concentration combination.
A smaller concentration indicates higher potency to synergize with azacitidine. […] The numbers in each cell represent the % response (left) or the Delta Bliss score (right) at each given concentration combination.
as §1
Briefly, 10 nL of compounds were acoustically dispensed into 1536-well white polystyrene tissue culture-treated plates with an Echo 550 acoustic liquid handler (Labcyte). MOLM14 (D835Y) or THP1 cells were then added to compound-containing plates at a density of 500-cells/well in 5 μL of medium. A 10-point custom concentration range was used for all listed drugs. […] 48h post compound addition, 3 μL of Cell Titer Glo (Promega) were added to each well and plates were incubated at room temperature for 15 minutes with the stainless-steel lid in place. Luminescence readings were taken using a Viewlux imager (PerkinElmer) with a 2 second exposure time per plate.

[1] = combination therapy of CG-806 (a FLT3/BTK inhibitor) and the named additional compound, 110 × 10 dataset
[2] = combination therapy of Compound 45a and the named additional compound, 110 × 10 dataset
[3] = combination therapy of Compound 46a and the named additional compound, 110 × 10 dataset
[4] = combination therapy of Compound 47a and the named additional compound, 110 × 10 dataset
[5] = combination therapy of Compound 48a and the named additional compound, 110 × 10 dataset
[6] = combination therapy of Compound 102 and the named additional compound, 10 × 10 dataset
[7] = combination therapy of Gilteritinib (a FLT3/AXL inhibitor) and the named additional compound, 110 × 10 dataset
[8] = combination therapy of PF-06650833 (an IRAK4 selective inhibitor) and the named additional compound, 110 × 10 dataset
[9] = combination therapy of Quizartinib (a FLT3/Kit/PDGFRa inhibitor) and the named additional compound, 110 × 10 dataset
[10] = combination therapy of emavusertib (CA-4948) (a FLT3/IRAK4 inhibitor) and the named additional compound, 110 × 10 dataset
[11] = listed as compound in combination with CG-806 (a FLT3/BTK inhibitor)
[12] = listed as compound in combination with Compound 45a
[13] = listed as compound in combination with Compound 46a
[14] = listed as compound in combination with Compound 47a
[15] = listed as compound in combination with Compound 48a
[16] = listed as compound in combination with Compound 102
[17] = listed as compound in combination with Compound 106
[18] = listed as compound in combination with Gilteritinib (a FLT3/AXL inhibitor)
[19] = listed as compound in combination with PF-06650833 (an IRAK4 selective inhibitor)
[20] = listed as compound in combination with Quizartinib (a FLT3/Kit/PDGFRa inhibitor)
[21] = listed as compound in combination with emavusertib (CA-4948) (a FLT3/IRAK4 inhibitor)

## CCN(C(=O)c1cc(F)ccc1Oc1cncnc1N1CC2(CCN(C[C@H]3CC[C@H](NS(=O)(=O)CC)CC3)CC2)C1)C(C)C [SNDX-5613]
MOLM14 (D835Y) cells; [1]
  Sum Excess HSA Score: −1.886
MOLM14 (D835Y) cells; [2]
  Sum Excess HSA Score: −24.88
MOLM14 (D835Y) cells; [3]
  Sum Excess HSA Score: −263.9
MOLM14 (D835Y) cells; [4]
  Sum Excess HSA Score: −358.8
MOLM14 (D835Y) cells; [5]
  Sum Excess HSA Score: −804.1
MOLM14 (D835Y) cells; [6]
  Sum Excess HSA Score: −748.9985
MOLM14 (D835Y) cells; [7]
  Sum Excess HSA Score: 47.75
MOLM14 (D835Y) cells; [8]
  Sum Excess HSA Score: −301.3
MOLM14 (D835Y) cells; [9]
  Sum Excess HSA Score: −724.1
MOLM14 (D835Y) cells; [10]
  Sum Excess HSA Score: −321
MOLM14 (D835Y) cells; 10 × 10 dataset
  Excess HSA Score: −210.8
THP1 cells; [11]
  Excess HSA Score: 321.1921
THP1 cells; [12]
  Excess HSA Score: 434.8
THP1 cells; [13]
  Excess HSA Score: 262.8
THP1 cells; [14]
  Excess HSA Score: 247.1
THP1 cells; [15]
  Excess HSA Score: 138.2
THP1 cells; [16]
  Excess HSA Score: 156.4
THP1 cells; [17]
  Excess HSA Score: 375.4
THP1 cells; [18]
  Excess HSA Score: 306.1
THP1 cells; [19]
  Excess HSA Score: −120
THP1 cells; [20]
  Excess HSA Score: 413.2
THP1 cells; [21]
  Excess HSA Score: 468.5

## C[C@@H]1OCC2(CCN(c3cnc(Sc4ccnc(N)c4Cl)c(N)n3)CC2)[C@@H]1N [TNO-155]
MOLM14 (D835Y) cells; [1]
  Sum Excess HSA Score: −753.6
MOLM14 (D835Y) cells; [2]
  Sum Excess HSA Score: −1028
MOLM14 (D835Y) cells; [3]
  Sum Excess HSA Score: −1041.6332
MOLM14 (D835Y) cells; [4]
  Sum Excess HSA Score: −1163
MOLM14 (D835Y) cells; [5]
  Sum Excess HSA Score: −1024
MOLM14 (D835Y) cells; [6]
  Sum Excess HSA Score: −510.7
MOLM14 (D835Y) cells; [7]
  Sum Excess HSA Score: −895.7
MOLM14 (D835Y) cells; [8]
  Sum Excess HSA Score: −773.7
MOLM14 (D835Y) cells; [9]
  Sum Excess HSA Score: −1091
MOLM14 (D835Y) cells; [10]
  Sum Excess HSA Score: −470.2
MOLM14 (D835Y) cells; 10 × 10 dataset
  Excess HSA Score: −943.9
THP1 cells; [11]
  Excess HSA Score: −198.4
THP1 cells; [12]
  Excess HSA Score: 64.74
THP1 cells; [13]
  Excess HSA Score: 591.7
THP1 cells; [14]
  Excess HSA Score: 207
THP1 cells; [15]
  Excess HSA Score: −3.87
THP1 cells; [16]
  Excess HSA Score: 485.0784
THP1 cells; [17]
  Excess HSA Score: −22.86
THP1 cells; [18]
  Excess HSA Score: 394.2
THP1 cells; [19]
  Excess HSA Score: −194.1
THP1 cells; [20]
  Excess HSA Score: 587.7
THP1 cells; [21]
  Excess HSA Score: 527.1

## CC(C)Nc1cc(-c2c[nH]c(C(=O)N[C@H](CO)c3cccc(Cl)c3)c2)c(Cl)cn1 [Ulixertinib, ulixertinib]
MOLM14 (D835Y) cells; [1]
  Sum Excess HSA Score: 258.3
MOLM14 (D835Y) cells; [2]
  Sum Excess HSA Score: 554.5
MOLM14 (D835Y) cells; [3]
  Sum Excess HSA Score: −208.5
MOLM14 (D835Y) cells; [4]
  Sum Excess HSA Score: 112.6
MOLM14 (D835Y) cells; [5]
  Sum Excess HSA Score: −576.8
MOLM14 (D835Y) cells; [6]
  Sum Excess HSA Score: −768.5
MOLM14 (D835Y) cells; [7]
  Sum Excess HSA Score: 29.29
MOLM14 (D835Y) cells; [8]
  Sum Excess HSA Score: 548.6
MOLM14 (D835Y) cells; [9]
  Sum Excess HSA Score: 1180
MOLM14 (D835Y) cells; [10]
  Sum Excess HSA Score: −352.8
MOLM14 (D835Y) cells; 10 × 10 dataset
  Excess HSA Score: −71.53
THP1 cells; [11]
  Excess HSA Score: 518
THP1 cells; [12]
  Excess HSA Score: −14.94
THP1 cells; [13]
  Excess HSA Score: 260.4
THP1 cells; [14]
  Excess HSA Score: −663.3
THP1 cells; [15]
  Excess HSA Score: −24.53
THP1 cells; [16]
  Excess HSA Score: −301.9
THP1 cells; [17]
  Excess HSA Score: −630.1436
THP1 cells; [18]
  Excess HSA Score: 690.556
THP1 cells; [19]
  Excess HSA Score: 552.8
THP1 cells; [20]
  Excess HSA Score: −530.2
THP1 cells; [21]
  Excess HSA Score: −230.3

## CC1(C)CCC(CN2CCN(c3ccc(C(=O)NS(=O)(=O)c4ccc(NCC5CCOCC5)c([N+](=O)[O-])c4)c(Oc4cnc5[nH]ccc5c4)c3)CC2)=C(c2ccc(Cl)cc2)C1 [Venetoclax (ABT-199), Venetoclax]
MOLM14 (D835Y) cells; [1]
  Sum Excess HSA Score: −751
MOLM14 (D835Y) cells; [2]
  Comments (synergistic / antagonistic): Synergistic (a negative Excess HSA value is indicative of synergy)
  Sum Excess HSA Score: −1552
MOLM14 (D835Y) cells; [3]
  Comments (synergistic / antagonistic): Synergistic (a negative Excess HSA value is indicative of synergy)
  Sum Excess HSA Score: −1667
MOLM14 (D835Y) cells; [4]
  Comments (synergistic / antagonistic): Synergistic (a negative Excess HSA value is indicative of synergy)
  Sum Excess HSA Score: −1849
MOLM14 (D835Y) cells; [5]
  Comments (synergistic / antagonistic): Synergistic (a negative Excess HSA value is indicative of synergy)
  Sum Excess HSA Score: −1280.6361
MOLM14 (D835Y) cells; [6]
  Comments (synergistic / antagonistic): Synergistic (a negative Excess HSA value is indicative of synergy)
  Sum Excess HSA Score: −966.5606
MOLM14 (D835Y) cells; [7]
  Comments (synergistic / antagonistic): Synergistic (a negative Excess HSA value is indicative of synergy)
  Sum Excess HSA Score: −1406
MOLM14 (D835Y) cells; [8]
  Comments (synergistic / antagonistic): Synergistic (a negative Excess HSA value is indicative of synergy)
  Sum Excess HSA Score: −1578
MOLM14 (D835Y) cells; [9]
  Comments (synergistic / antagonistic): Synergistic (a negative Excess HSA value is indicative of synergy)
  Sum Excess HSA Score: −1656
MOLM14 (D835Y) cells; [10]
  Comments (synergistic / antagonistic): Synergistic (a negative Excess HSA value is indicative of synergy)
  Sum Excess HSA Score: −1038
MOLM14 (D835Y) cells; combination with Compound 106
  Comments: Synergistic (a negative Excess HSA value is indicative of synergy)
MOLM14 (D835Y) cells; 10 × 10 dataset
  Excess HSA Score: −1540
THP1 cells; combination with CG-806
  Comments: Synergistic (a negative Excess HSA value is indicative of synergy)
THP1 cells; combination with Compound 45a
  Comments: Synergistic (a negative Excess HSA value is indicative of synergy)
THP1 cells; combination with Compound 46a
  Comments: Synergistic (a negative Excess HSA value is indicative of synergy)
THP1 cells; combination with Compound 47a
  Comments: Synergistic (a negative Excess HSA value is indicative of synergy)
THP1 cells; combination with Compound 102
  Comments: Synergistic (a negative Excess HSA value is indicative of synergy)
THP1 cells; combination with Compound 106
  Comments: Synergistic (a negative Excess HSA value is indicative of synergy)
THP1 cells; combination with Gilteritinib
  Comments: Synergistic (a negative Excess HSA value is indicative of synergy)
THP1 cells; [11]
  Excess HSA Score: −1431.1287
THP1 cells; [12]
  Excess HSA Score: −1070
THP1 cells; [13]
  Excess HSA Score: −1405
THP1 cells; [14]
  Excess HSA Score: −1419
THP1 cells; [15]
  Excess HSA Score: −628.4379
THP1 cells; [16]
  Excess HSA Score: −1775
THP1 cells; [17]
  Excess HSA Score: −1478
THP1 cells; [18]
  Excess HSA Score: −1448
THP1 cells; [19]
  Excess HSA Score: −429.3
THP1 cells; [20]
  Excess HSA Score: −216
THP1 cells; [21]
  Excess HSA Score: −526.5
